In assay [1] the target is T1, CgLOG (Cg2612) (Corynebacterium glutamicum, UniProt Q8NN34, S19A).
T1 construct: gene Cgl2379; full-length, C-terminal 6xHis (pET30a), E. coli BL21(DE3); dimer; residues 2-195 seen in crystal; active site at dimer interface
The assay can be described thus: phosphoribohydrolase assay, TLC with UV detection of adenine. It is filed as biochemical. Conditions: 20 mM AMP, 36 mM Tris-HCl pH 8.0, 30 °C, 23 μM enzyme.

Assay [2] addresses T2, CgLOG (Cg2612) (Corynebacterium glutamicum, UniProt Q8NN34).
T2 construct: gene Cgl2379; full-length, C-terminal 6xHis (pET30a), E. coli BL21(DE3); dimer; residues 2-195 seen in crystal; active site at dimer interface
T2 sequence (Q8NN34 1-195): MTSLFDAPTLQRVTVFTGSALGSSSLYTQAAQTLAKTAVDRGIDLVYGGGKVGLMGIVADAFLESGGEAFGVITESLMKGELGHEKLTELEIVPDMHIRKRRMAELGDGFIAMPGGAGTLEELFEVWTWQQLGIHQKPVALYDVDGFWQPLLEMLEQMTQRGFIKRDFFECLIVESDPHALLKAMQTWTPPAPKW
Described as above. It is filed as biochemical. Conditions: 20 mM AMP, 36 mM Tris-HCl pH 8.0, 30 °C, 23 μM enzyme.

In assay [3] the target is LOG from Corynebacterium glutamicum ATCC 13032 (gene product of Cg2612) (Corynebacterium glutamicum ATCC 13032). The assay can be described thus: SAXS; solution SAXS at 4 °C, CgLOG 0.5 ~ 4.5 mg/ml; molecular mass by the QR method.
The target is the same in assay [4]. The assay can be described thus: SEC; analytical, Superdex 200 10/300, 150 mM NaCl, 300 μL of 3 mg/ml protein; molecular weight from a calibration curve of standards.

Usually stoichiometry N stands for the number of molecules, sites or subunits per partner or assembly.

T1 sequence (Q8NN34 entry or part of it S19A): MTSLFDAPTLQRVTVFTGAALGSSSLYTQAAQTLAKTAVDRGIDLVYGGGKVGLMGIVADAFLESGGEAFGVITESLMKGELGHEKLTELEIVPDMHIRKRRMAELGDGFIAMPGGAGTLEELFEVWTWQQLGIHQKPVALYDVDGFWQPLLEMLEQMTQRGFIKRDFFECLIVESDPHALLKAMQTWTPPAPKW

On to `Nc1ncnc2c1ncn2[C@@H]1O[C@H](COP(=O)(O)O)[C@@H](O)[C@H]1O` [AMP], for which the “phosphoribohydrolase assay, TLC with UV detection of adenine” value on CgLOG (Cg2612) [1] was “One exception is S19A mutant which shows higher activity than the wild-type”; at CgLOG (Cg2612) [2], “we observed that Cg2612 has phosphoribohydrolase activity”.
In the case of “LOG from Corynebacterium glutamicum ATCC 13032 (gene product of Cg2612) (enzyme)”, the stoichiometry N in assay [3] and in assay [4] was 2 each time.

These data come from publication PMC4979012, “Structural basis for cytokinin production by LOG from Corynebacterium glutamicum” (Scientific Reports, 2016).
